Reference: patent US12618112B2, “Epigenetic moderators of naltrexone efficacy in reducing heavy drinking in individuals diagnosed with alcohol use disorder” (MUSC Foundation for Research Development, priority 2021, dated 2026)

Legend:
[1] = tested on: treatment-seeking AUD patients; test: 16-week randomized, placebo-controlled naltrexone trial; percent heavy drinking days (PHDD) by promoter/VNTR methylation subgroup; format: in vivo, human; settings: for effect of naltrexone, relative to placebo, on PHDD: 16-week trial
Excerpt: Overview. Detailed methods for the parent RCT, including a CONSORT diagram, are described in Anton et al, 2020 and Schacht et al, 2017. The Medical University of South Carolina Institutional Review Board approved all procedures, and all participants provided informed consent before participation. The study consisted of an initial assessment session, a baseline visit, and 9 follow-up visits over the course of a 16-week treatment period. Briefly, participants seeking AUD treatment were recruited from the community with media advertisements, assessed for inclusion/exclusion criteria, and genotyped for rs1799971. One of the aims of the parent RCT was to test the effect of rs1799971 genotype on naltrexone efficacy, so participants who carried the minor (G) allele were over-selected, such that these individuals ultimately comprised ˜50% of the 146 participants randomized to medication.
Participants. Participants were required to be ages 18-70; report heavy drinking (at least five/four standard drinks per day for men/women) on at least 50% of the days in the 90 days before assessment; and meet DSM-IV (Diagnostic and Statistical Manual of Mental Disorders, revised 4th edition) diagnostic criteria for Alcohol Dependence, as assessed by the Structured Clinical Interview for DSM-IV (First et al, 2002). Participants were also required to self-identify as Caucasian or Asian, secondary to low rs1799971 G-allele frequency among individuals of African descent; we previously reported that analysis of population allele frequencies for 50 SNPs included on the methylation assay used here indicated a high degree of correspondence between self-reported and SNP-identified ancestry. […] Exclusion criteria were: current psychotropic medication use other than antidepressants (for which a stable dose for at least one month was required); current DSM-IV Axis I diagnosis or suicidal/homicidal ideation; history of significant medical illness; liver enzyme (ALT or AST) levels>three times normal; and past-month naltrexone, disulfiram, or acamprosate use. Female participants could not be pregnant or nursing. The Table below lists demographic characteristics for the sample. Medication, randomization, and assessment. Participants were required to maintain abstinence for at least four days before medication randomization, and were then urn randomized (Stout et al, 1994) to receive naltrexone (25 mg for two days, then 50 mg thereafter) or placebo for 16 weeks. Randomization was stratified by rs1799971 genotype, with sex, smoking status (non-smoker vs. smoker, defined as ≥10 cigarettes per day), cocaine use, antidepressant use, and AUD family history balanced across medication groups. […] Participants and investigators were blind to genotype and medication assignment. After randomization, participants returned at weeks 1, 2, 3, 4, 6, 8, 10, 12, and 16 for medical management sessions, during which daily drinking since the last visit was assessed with the calendar-based Timeline Follow-back interview (Sobell and Sobell, 1992). Participants who dropped out after randomization were compensated to return at week 16 to provide missing drinking data. Forty participants ultimately dropped out, at similar rates across medication groups, but full drinking data were available on 89% of participants.
Methylation assay. Genomic DNA was quantitated using a Qubit Fluorometer (Thermo Fisher Scientific, Waltham, MA). An Infinium MethylationEPIC BeadChip (Illumina, San Diego, CA), which assays methylation at 866,895 cytosine residues, 99.7% of which are CpG sites, was used to generate a comprehensive genome-wide profile of DNA methylation. For each subject, 500 ng genomic DNA was bisulfate converted, denatured, and amplified, fragmented, resuspended, and hybridized to the BeadChips (eight samples per chip). […]

[2] = tested on: individuals with Alcohol Use Disorder; settings: cited from earlier work
[3] = month 3, high SLC6A3 promoter and low OPRM1 promoter methylation

O=C1CC[C@@]2(O)[C@H]3Cc4ccc(O)c5c4[C@@]2(CCN3CC2CC2)[C@H]1O5 [naltrexone]
effect size (Cohen's d) for PHDD, naltrexone relative to placebo ([1]; across all study months, lower COMT promoter and lower OPRM1 promoter methylation): 0.85
mean difference between naltrexone and placebo in PHDD ([1]; across all study months, lower COMT promoter and lower OPRM1 promoter methylation (median split)): 19.7 % HDD
effect size (Cohen's d) for PHDD, naltrexone relative to placebo ([1]; across all study months, lower SLC6A3 VNTR and lower OPRM1 promoter methylation): 1.25
mean difference between naltrexone and placebo in PHDD ([1]; across all study months, lower SLC6A3 VNTR and lower OPRM1 promoter methylation (median split)): 28.5 % HDD
simple effect of medication on PHDD ([1]; any time point, any other combination of SLC6A3 and OPRM1 promoter methylation (except high SLC6A3/low OPRM1)): not significant
heavy drinking days ([1]; lower methylation of OPRM1 and SLC6A3 or COMT promoters, relative to placebo and to higher methylation): significantly fewer heavy drinking days
effect size (Cohen's d) for PHDD, naltrexone relative to placebo ([1]; month 2, lower SLC6A3 promoter and lower OPRM1 promoter methylation): 0.61
mean difference between naltrexone and placebo in PHDD ([1]; month 2, lower SLC6A3 promoter and lower OPRM1 promoter methylation (median split), naltrexone 50 mg): 16.2 % HDD
effect size (Cohen's d) for PHDD, naltrexone relative to placebo [1, 3]: 0.98
mean difference between naltrexone and placebo in PHDD [1, 3]: 25.7 % HDD
effect size (Cohen's d) for PHDD, naltrexone relative to placebo ([1]; month 3, lower SLC6A3 promoter and lower OPRM1 promoter methylation): 0.62
mean difference between naltrexone and placebo in PHDD ([1]; month 3, lower SLC6A3 promoter and lower OPRM1 promoter methylation (median split)): 16.5 % HDD
effect of naltrexone, relative to placebo, on PHDD ([1]; participants with lower COMT promoter and OPRM1 promoter methylation): reduced PHDD more
effect of naltrexone, relative to placebo, on PHDD ([1]; participants with lower SLC6A3 VNTR and OPRM1 promoter methylation): reduced PHDD more
effect of naltrexone, relative to placebo, on PHDD ([1]; participants with lower SLC6A3 promoter and OPRM1 promoter methylation): reduced PHDD more
effect sizes for naltrexone, relative to placebo, on heavy drinking ([1]; subgroups in which it was most effective): 0.53-1.04
overall effect of naltrexone on heavy drinking ([2]; across all AUD individuals (Maisel et al, 2013)): small
effect on heavy drinking ([2]; individuals with AUD (Jonas et al., 2014a)): reduces heavy drinking
